Measured values: patent publication US20230159931A1, “TARGETING THE PALMOTYLATION/DEPALMOTYLATION CYCLE TO TREAT INFLAMMATORY DISEASES” (CORNELL UNIVERSITY, priority 2020, published 2023)

Tests used:
[1] = test system: Bone marrow-derived macrophages (BMDM); assay: Cytokine mRNA expression during LPS priming of BMDM (qRT-PCR); type: cell-based; conditions: 100 ng/mL LPS, 2-BP 10 μM or 25 μM, 6 hours
Description: (§1) FIGS. 12A-12D. 2-BP, a pan-DHHC inhibitor, decreases cytokines mRNA expression during the LPS priming step of inflammasome activation. Bone marrow-derived macrophages (BMDM) were treated with 100 ng/mL lipopolysaccharide (LPS), which can prime BMDM for inflammasome activation. A small molecule that inhibits all the DHHC family of palmitoyltransferases (DHHCs), 2-bromopalmitate (2-BP), was added at 10 μM or 25 μM together with LPS. The cells were cultured with LPS and 2-BP for 6 hours and then the mRNA levels of several pro-inflammatory cytokines: (A) IL-1 beta, (B) IL-6, (C) IL-12 beta, and (D) IL-18, were measured by quantitative reverse transcription PCR (qRT-PCR).
as §1, with “Bone” for “FIGS. 12A-12D. 2-BP, a pan-DHHC inhibitor, decreases cytokines mRNA expression during the LPS priming step of inflammasome activation. Bone”, “cytokines:” for “cytokines: (A)”, “beta (FIG. 12A), IL-6 (FIG. 12B),” for “beta, (B) IL-6, (C)”, “beta (FIG. 12C),” for “beta,”, “IL-18 (FIG. 12D),” for “(D) IL-18,”

[2] = test system: NLRP3 inflammasome; assay: NLRP3-mediated inflammasome activation in peritoneal macrophage (secreted IL-1 beta); type: cell-based; conditions: peritoneal macrophage primed with LPS 200 ng/mL 4h; 2-BP 25 μM with ATP 5 mM or Nigericin 10 μM, 1 h
Description: (§2) FIG. 13. 2-BP affects NLRP3-mediated inflammasome activation. Peritoneal macrophage was first primed with LPS (200 ng/mL) in DMEM medium (without serum) for 4h, and then 2-BP (25 μM) and ATP (5 mM) or Nigericin (10 μM) were added to the cell culture and incubated for 1 h. ATP and nigericin are two reagents that are commonly used to activate the NLRP3 inflammasome. The activation of NLRP3 inflammasome was then monitored by measuring the level of IL-1 beta secreted to the medium.
as §2, with “Peritoneal” for “FIG. 13. 2-BP affects NLRP3-mediated inflammasome activation. Peritoneal”, “medium (FIG. 13). The data support that inhibiting DHHCs with 2-BP can decrease NLRP3 inflammasome activation.” for “medium.”

[3] = test system: SMAD2 S-palmitoylation; assay: SMAD2 S-palmitoylation in HEK293T cells treated with APT inhibitors (Alk14, in-gel fluorescence); type: cell-based, human; conditions: 10 μM APT inhibitors for 24 hours; HEK293T cells with HA-DHHC7 and Flag-SMAD2
Description: FIGS. 7A-7G. APT2 is the depalmitylase of SMAD2 and C-terminal phosphorylation of SMAD2 is S-palmitoylation independent. (A) C-terminal phosphorylation (Ser465/Ser467) levels of Flag-SMAD2 (p-SMAD2(C2)) in HEK293T cells expressing HA-tagged mouse DHHC1-23. SMAD2 was pulled down with Flag beads and subjected to western blot analyses. (B) HEK293T cells were transfected with HA-tagged DHHC7 and Flag-SMAD2 WT and C41/81S mutant plasmid and treated with Alk14. The S-palmitoylation level of immunoprecipitated SMAD2 was visualized by in-gel fluorescence and the p-SMAD2(C2) level was detected by western blot analyses. […] The S-palmitoylation level of immunoprecipitated SMAD2 was visualized by in-gel fluorescence. […] The cells were labeled with Alk14 and the S-palmitoylation of SMAD2 was determined by in-gel fluorescence. […] The cells were labeled with Alk14 and the S-palmitoylation of SMAD2 was determined by in-gel fluorescence and the p-SMAD2(C2) level was detected by western blot analyses. […]
Cells were treated with 50 μM palmitic acid analogue Alkyne 14 (Alk14) for 5 h and the collected and lysed in 1% NP-40 lysis buffer (25 mM Tris-HCl pH 8.0, 150 mM NaCl, 10% glycerol, 1% Nonidet P-40) with protease inhibitor cocktail. […] The protein concentration was determined by Bradford assay (23200, Thermo Fisher). […]

| Structure (SMILES) | IL-1 beta mRNA level [1] | IL-6 mRNA level [1] | IL-12 beta mRNA level [1] | IL-18 mRNA level [1] | NLRP3 inflammasome activation (level of IL-1 beta secreted to the medium) [2] | SMAD2 S-palmitoylation signal [3] |
| --- | --- | --- | --- | --- | --- | --- |
| CCCCCCCCCCCCCCC(Br)C(=O)O (stereo not drawn) [2-BP, 2-bromopalmitic acid] | decrease the mRNA levels of all these cytokines in a concentration dependent manner | decrease the mRNA levels of all these cytokines in a concentration dependent manner | decrease the mRNA levels of all these cytokines in a concentration dependent manner | decrease the mRNA levels of all these cytokines in a concentration dependent manner | decrease | – |
| CCCCCCCCCC[C@@H]1C(=O)O[C@H]1CCc1ccc(OC)c(OC)c1 [palmostatin B] | – | – | – | – | – | significantly enhanced |
